Measured values as given in patent US10294202B2, “Pyrrolidinones as herbicides” (FMC Corporation, priority 2013, dated 2019).

Assays:
ragweed = assay: Test A pre-/postemergence herbicide test; assay type: in vivo, Ambrosia elatior
In short: (§1)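 Seeds in loam–sand blend received preemergence directed soil spray; separately, plants 2–10 cm at one- to two-leaf stage received postemergence spray, both with test chemicals in non-phytotoxic solvent with surfactant. After ~10 days in greenhouse, injury rated visually against untreated controls, 0 (no effect) to 100 (complete control).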

ducksalad = assay: Test B flooded paddy test; assay type: in vivo, Heteranthera limosa; settings: Flood, scale of 0 to 100 where 0 is no effect and 100 is complete control
In short: (§2)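 2-leaf plants; flood 3 cm over soil; compound into paddy water; depth held. Greenhouse 13–15 d. Visual rating vs controls, 0 (no effect) to 100 (complete control); dash = not tested.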

blackgrass = assay: Test A postemergence herbicide test; assay type: in vivo, Alopecurus myosuroides
In short: (§3)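 Visual injury rating, 0 (no effect) to 100 (complete control), versus untreated controls ~10 days after treatment. Postemergence spray applied at one- to two-leaf stage, plants 2–10 cm tall, potted in loam soil/sand. Greenhouse-held.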

barnyardgrass [1] = assay: Test A pre-/postemergence herbicide test; assay type: in vivo, Echinochloa crus-galli
In short: as §1

corn = assay: Test A pre-/postemergence herbicide test; assay type: in vivo, Zea mays; settings: Postemergence
In short: as §1

ryegrass, Italian = assay: Test A pre-/postemergence herbicide test; assay type: in vivo, Lolium multiflorum
In short: as §1

sedge, umbrella = assay: Test B flooded paddy test; assay type: in vivo, Cyperus difformis; settings: Flood, scale of 0 to 100 where 0 is no effect and 100 is complete control
In short: as §2

galium = assay: Test A postemergence herbicide test; assay type: in vivo, Galium aparine
In short: as §3

wheat = assay: Test A pre-/postemergence herbicide test; assay type: in vivo, Triticum aestivum; settings: Postemergence
In short: as §1

rice = assay: Test B flooded paddy test; assay type: in vivo, Oryza sativa; settings: Flood, scale of 0 to 100 where 0 is no effect and 100 is complete control
In short: as §2

barnyardgrass [2] = assay: Test B flooded paddy test; assay type: in vivo, Echinochloa crus-galli; settings: Flood, scale of 0 to 100 where 0 is no effect and 100 is complete control
In short: as §2

giant foxtail = assay: Test A pre-/postemergence herbicide test; assay type: in vivo, Setaria faberii
In short: as §1

kochia = assay: Test A pre-/postemergence herbicide test; assay type: in vivo, Kochia scoparia
In short: as §1

pigweed = assay: Test A pre-/postemergence herbicide test; assay type: in vivo, Amaranthus retroflexus
In short: as §1

[3] = 125 g ai/ha, visual rating, 0 to 100 scale, 0 no effect, 100 complete control, approximately 10 days, preemergence
[4] = Postemergence, 125 g ai/ha, 0 to 100 scale, 0 is no effect, 100 is complete control
[5] = preemergence, 500 g ai/ha, 0 to 100 scale, 0 is no effect and 100 is complete control
[6] = 125 g ai/ha, 0 to 100 scale, 0 is no effect, 100 is complete control
[7] = Postemergence, 125 g ai/ha, visual rating on 0 to 100 scale (0 no effect, 100 complete control), approx. 10 days
[8] = Postemergence, 500 g ai/ha, 0 to 100 scale (0 no effect, 100 complete control)
[9] = Preemergence, 125 g ai/ha, 0 to 100 scale where 0 is no effect and 100 is complete control
[10] = Preemergence, 500 g ai/ha, visual rating on 0 to 100 scale (0 no effect, 100 complete control)
[11] = 125 g ai/ha, visual rating on 0 to 100 scale (0 no effect, 100 complete control), approx. 10 days
[12] = 500 g ai/ha, 0 to 100 scale (0 no effect, 100 complete control)

SMILES: O=C1NCC(c2cccc(S(F)(F)(F)(F)F)c2)C1C(=O)Nc1ccccc1F (racemic) [Compound 213]
- Plant response rating, Ragweed (ragweed; [3]): 0
- Plant response rating, Ragweed (ragweed; [4]): 0
- Ragweed plant response rating (0 to 100 scale, 0 is no effect, 100 is complete control) (ragweed; Postemergence, 500 g ai/ha): 30
- Plant response rating, Ragweed (ragweed; [5]): 0
- Plant response rating, Ducksalad (ducksalad; 1000 g ai/ha): 85
- Plant response rating, Blackgrass (blackgrass; [6]): 50
- Blackgrass plant response rating (0 to 100 scale, 0 is no effect, 100 is complete control) (blackgrass; 500 g ai/ha): 60
- Plant response rating, Barnyardgrass (barnyardgrass [1]; [3]): 50
- Plant response rating, Barnyardgrass (barnyardgrass [1]; [4]): 60
- Barnyardgrass plant response rating (0 to 100 scale, 0 is no effect, 100 is complete control) (barnyardgrass [1]; Postemergence, 500 g ai/ha): 70
- Plant response rating, Barnyardgrass (barnyardgrass [1]; [5]): 80
- Plant response rating, Corn (corn; [6]): 0
- Corn plant response rating (0 to 100 scale, 0 is no effect, 100 is complete control) (corn; 500 g ai/ha): 50
- Plant response rating, Ryegrass, Italian (ryegrass, Italian; [3]): 0
- Plant response rating, Ryegrass, Italian (ryegrass, Italian; [4]): 40
- Ryegrass, Italian plant response rating (0 to 100 scale, 0 is no effect, 100 is complete control) (ryegrass, Italian; Postemergence, 500 g ai/ha): 50
- Plant response rating, Ryegrass, Italian (ryegrass, Italian; [5]): 40
- Plant response rating, Sedge, Umbrella (sedge, umbrella; 1000 g ai/ha): 0
- Plant response rating, Galium (galium; [6]): 0
- Galium plant response rating (0 to 100 scale, 0 is no effect, 100 is complete control) (galium; 500 g ai/ha): 0
- Plant response rating, Wheat (wheat; [6]): 0
- Wheat plant response rating (0 to 100 scale, 0 is no effect, 100 is complete control) (wheat; 500 g ai/ha): 50
- Plant response rating, Rice (rice; 1000 g ai/ha): 0
- Plant response rating, Barnyardgrass (barnyardgrass [2]; 1000 g ai/ha): 60
- Plant response rating, Foxtail, Giant (giant foxtail; [3]): 80
- Plant response rating, Foxtail, Giant (giant foxtail; [4]): 80
- Foxtail, Giant plant response rating (0 to 100 scale, 0 is no effect, 100 is complete control) (giant foxtail; Postemergence, 500 g ai/ha): 90
- Plant response rating, Foxtail, Giant (giant foxtail; [5]): 90
- Plant response rating, Kochia (kochia; [3]): 0
- Plant response rating, Kochia (kochia; [4]): 0
- Kochia plant response rating (0 to 100 scale, 0 is no effect, 100 is complete control) (kochia; Postemergence, 500 g ai/ha): 0
- Plant response rating, Kochia (kochia; [5]): 0
- Plant response rating, Pigweed (pigweed; [3]): 0
- Plant response rating, Pigweed (pigweed; [4]): 0
- Pigweed plant response rating (0 to 100 scale, 0 is no effect, 100 is complete control) (pigweed; Postemergence, 500 g ai/ha): 0
- Plant response rating, Pigweed (pigweed; [5]): 0

SMILES: O=C1NCC(c2cccc(-n3ccc(C(F)(F)F)n3)c2)C1C(=O)Nc1cccc(F)c1F (stereo not drawn) [Compound 326]
- Plant response rating, Ragweed (ragweed; [7]): 0
- Plant response rating, Ragweed (ragweed; [8]): 0
- Plant response rating, Ragweed (ragweed; [9]): 0
- Ragweed plant response rating (ragweed; [10]): 0
- Plant response rating, Ducksalad (ducksalad; 500 g ai/ha): 0
- Plant response rating, Blackgrass (blackgrass; [11]): 0
- Plant response rating, Blackgrass (blackgrass; [12]): 0
- Plant response rating, Barnyardgrass (barnyardgrass [1]; [7]): 0
- Plant response rating, Barnyardgrass (barnyardgrass [1]; [8]): 20
- Plant response rating, Barnyardgrass (barnyardgrass [1]; [9]): 0
- Barnyardgrass plant response rating (barnyardgrass [1]; [10]): 30
- Plant response rating, Corn (corn; [11]): 0
- Plant response rating, Corn (corn; [12]): 0
- Plant response rating, Ryegrass, Italian (ryegrass, Italian; [7]): 0
- Plant response rating, Ryegrass, Italian (ryegrass, Italian; [8]): 0
- Plant response rating, Ryegrass, Italian (ryegrass, Italian; [9]): 0
- Ryegrass, Italian plant response rating (ryegrass, Italian; [10]): 40
- Plant response rating, Sedge, Umbrella (sedge, umbrella; 500 g ai/ha): 0
- Plant response rating, Galium (galium; [11]): 0
- Plant response rating, Galium (galium; [12]): 0
- Plant response rating, Wheat (wheat; [11]): 0
- Plant response rating, Wheat (wheat; [12]): 0
- Plant response rating, Rice (rice; 500 g ai/ha): 0
- Plant response rating, Barnyardgrass (barnyardgrass [2]; 500 g ai/ha): 0
- Plant response rating, Foxtail, Giant (giant foxtail; [7]): 20
- Plant response rating, Foxtail, Giant (giant foxtail; [8]): 50
- Plant response rating, Foxtail, Giant (giant foxtail; [9]): 50
- Foxtail, Giant plant response rating (giant foxtail; [10]): 60
- Plant response rating, Kochia (kochia; [7]): 0
- Plant response rating, Kochia (kochia; [8]): 30
- Plant response rating, Kochia (kochia; [9]): 40
- Kochia plant response rating (kochia; [10]): 50
- Plant response rating, Pigweed (pigweed; [7]): 0
- Plant response rating, Pigweed (pigweed; [8]): 0
- Plant response rating, Pigweed (pigweed; [9]): 0
- Pigweed plant response rating (pigweed; [10]): 0
